Measurements taken from PubChem BioAssay (NCI).
Where “and” joins values, the source holds several entries; their conditions need not be identical. Equal values may be shown once.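 Method: 48-hour compound exposure of cells in 96-well plates, five concentrations, linear interpolation of endpoints. GI50: concentration for 50% inhibition of growth. The concentration for full growth arrest is given as TGI.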

Key:
Test in all cases: DTP human tumour cell line panel, 48 h
HL-60(TB) leukemia = test system: HL-60(TB) leukemia
EKVX NSCLC = test system: EKVX NSCLC
SR leukemia = test system: SR leukemia
RXF 393 renal = test system: RXF 393 renal
SF-268 CNS = test system: SF-268 CNS
SNB-75 CNS = test system: SNB-75 CNS
HT29 colon = test system: HT29 colon
RPMI-8226 leukemia = test system: RPMI-8226 leukemia
SK-MEL-2 melanoma = test system: SK-MEL-2 melanoma
SK-MEL-5 melanoma = test system: SK-MEL-5 melanoma

| Compound | GI50 (HL-60(TB) leukemia) | TGI (HL-60(TB) leukemia) | GI50 (EKVX NSCLC) | TGI (EKVX NSCLC) | GI50 (SR leukemia) | TGI (SR leukemia) [µM] | GI50 (RXF 393 renal) | TGI (RXF 393 renal) | GI50 (SF-268 CNS) | TGI (SF-268 CNS) | GI50 (SNB-75 CNS) [nM] | TGI (SNB-75 CNS) [µM] | GI50 (HT29 colon) [nM] | TGI (HT29 colon) | GI50 (RPMI-8226 leukemia) | TGI (RPMI-8226 leukemia) [µM] | GI50 (SK-MEL-2 melanoma) [nM] | TGI (SK-MEL-2 melanoma) | GI50 (SK-MEL-5 melanoma) | TGI (SK-MEL-5 melanoma) |
| --- | --- | --- | --- | --- | --- | --- | --- | --- | --- | --- | --- | --- | --- | --- | --- | --- | --- | --- | --- | --- |
| COc1cc(-c2nc(SCCC(C)C)nc(Nc3ccc(S(N)(=O)=O)cc3)c2C#N)cc(OC)c1OC | 2300 nM | 5.86 µM | 3420 nM | > 100 µM | 1910 nM | 6.86 | 1830 nM | 3.97 µM | 3670 nM | > 100 µM | 2150 | 54.2 | 2250 | 5.13 µM | 1730 nM | 6.79 | 2470 | 6.16 µM | 1590 nM | 3.01 µM |
| C[N+]1=C(/C=C\C=C\c2ccccc2)C(C)(C)c2ccccc21 | 258 nM | 1.62 µM | 2420 nM | 14.4 µM | 925 nM | 4.31 | 1750 nM | 3.62 µM | 3330 nM | 12.1 µM | 3730 | 16.2 | 2600 | 9.09 µM | 1220 nM | 6.53 | 1690 | 4.31 µM |  |  |
| COc1ccc(C2ON(c3cccc(C)n3)CC=C2C)cc1 (centres undefined) |  | 43.7 µM |  | > 100 µM |  | 99.2 |  | 96.5 µM |  | > 100 µM |  | > 100 |  | > 100 µM |  | > 100 |  | 69.4 µM |  | 33.3 µM |
| CCOC(=O)c1[nH]c(COC(C)=O)c2c1CCCCCCCCCC2 |  | > 100 µM |  | > 100 µM |  | > 100 |  | > 100 µM |  | > 100 µM |  | > 100 |  | > 100 µM |  | > 100 |  | > 100 µM |  | > 100 µM |
| CN(C)c1ccc(/C=C/c2cc[n+](C)c(/C=C/c3ccc(N(C)C)cc3)c2)cc1 | 190 nM | 0.873 µM |  |  | 309 nM | 2.45 | 389 nM | 1.91 µM | 399 nM | 6.26 µM | 253 | 2.33 | 274 | 2.65 µM | 123 nM | 0.675 | 256 | 0.713 µM | 204 nM | 0.465 µM |
| N#C/C(=C\c1ccc(Br)cc1)n1nnc2ccc(F)cc21 | 702 nM | 5.23 µM |  |  | 348 nM | > 100 | 465 nM | 1.86 µM | 1840 nM | 4.33 µM |  | 2.24 |  |  | 841 nM | 6.96 | 1560 | 4.98 µM | 1570 nM | 2.94 µM |
| CN(C)CCNC(=O)c1ccc(NC(=O)c2nc([N+](=O)[O-])cn2C)cc1 |  | > 100 µM |  |  |  | > 100 |  | > 100 µM |  | > 100 µM |  | > 100 |  | > 100 µM |  | > 100 |  | > 100 µM |  | > 100 µM |
| Cc1cc(C)c(-n2c(-c3ccc(Br)cc3)cs/c2=N\N=C2C=C(C(C)(C)C)C(=O)C(C(C)(C)C)=C2)c(C)c1 |  | > 100 µM |  | > 100 µM |  | > 100 |  | 81.8 µM |  | > 100 µM |  | 57.1 |  | > 100 µM |  | > 100 |  | > 100 µM |  | > 100 µM |
| CCN(CC)c1ccc(C(=O)c2ccc(N(CC)CC)cc2)cc1 | 407 nM | 2.5 µM | 1190 nM | > 70.3 µM | 127 nM | > 100 | 444 nM | 1.63 µM | 666 nM | > 35.9 µM | 458 | > 83.6 | 359 | 3.78 µM | 519 nM | 6.25 | 493 | 14.9 µM | 384 nM | 12.7 µM |
| COc1cc(Nc2ncc(F)c(Nc3ccc4c(n3)N(COP(=O)(O)O)C(=O)C(C)(C)O4)n2)cc(OC)c1OC | 4190 nM and 6050 nM | 32.6 µM and > 10 µM | 2190 nM and 1930 nM | 13.7 µM and > 10 µM | 2930 nM and 2970 nM | > 36.5 | 100 nM and 256 nM | 0.621 µM and 0.936 µM | 1450 nM and 1040 nM | 5.22 µM and 3.73 µM | 319 | 1.52 | 1660 | 10.7 µM and > 10 µM | 3550 nM and 4340 nM | > 31.3 | 5810 | 53.3 µM and > 10 µM | 5510 nM and 3540 nM | 33.3 µM and > 10 µM |
| CCCSS[C@H]1NC(=O)[C@H]1NC(=O)COc1ccccc1 |  | 5.72 µM |  | 41.4 µM |  | 19.6 |  | 29.7 µM |  | 40.5 µM |  | 44 |  | 36.3 µM |  | 88.1 |  | 33.5 µM |  | 54.9 µM |
| CCN1CCN(CC(=O)N2c3cccc4cccc(c34)N(C(=O)CN3CCN(CC)CC3)C2c2cn(-c3ccccc3)nc2-c2cccc([N+](=O)[O-])c2)CC1 | 1930 nM | 3.85 µM | 1790 nM | 3.79 µM | 267 nM | 0.8 | 1620 nM | 3.09 µM | 1670 nM | 3.47 µM | 1130 | 2.48 | 1740 | 3.84 µM | 1590 nM | 3.94 | 1840 | 3.58 µM | 1750 nM | 3.21 µM |
| NC(N)=NS(=O)(=O)c1ccc(NCCc2c3ccccc3nc3ccccc23)cc1 |  | 82.5 µM |  | > 100 µM |  | > 100 |  | > 100 µM |  | > 100 µM |  | > 100 |  | > 100 µM |  | > 100 |  | > 100 µM |  |  |
